In article PMC4983742 (ACS Medicinal Chemistry Letters, 2016):

Target: T1, androgen receptor (AR) (Homo sapiens, UniProt P10275, T878A)
T1 sequence (P10275 1-920 T878A): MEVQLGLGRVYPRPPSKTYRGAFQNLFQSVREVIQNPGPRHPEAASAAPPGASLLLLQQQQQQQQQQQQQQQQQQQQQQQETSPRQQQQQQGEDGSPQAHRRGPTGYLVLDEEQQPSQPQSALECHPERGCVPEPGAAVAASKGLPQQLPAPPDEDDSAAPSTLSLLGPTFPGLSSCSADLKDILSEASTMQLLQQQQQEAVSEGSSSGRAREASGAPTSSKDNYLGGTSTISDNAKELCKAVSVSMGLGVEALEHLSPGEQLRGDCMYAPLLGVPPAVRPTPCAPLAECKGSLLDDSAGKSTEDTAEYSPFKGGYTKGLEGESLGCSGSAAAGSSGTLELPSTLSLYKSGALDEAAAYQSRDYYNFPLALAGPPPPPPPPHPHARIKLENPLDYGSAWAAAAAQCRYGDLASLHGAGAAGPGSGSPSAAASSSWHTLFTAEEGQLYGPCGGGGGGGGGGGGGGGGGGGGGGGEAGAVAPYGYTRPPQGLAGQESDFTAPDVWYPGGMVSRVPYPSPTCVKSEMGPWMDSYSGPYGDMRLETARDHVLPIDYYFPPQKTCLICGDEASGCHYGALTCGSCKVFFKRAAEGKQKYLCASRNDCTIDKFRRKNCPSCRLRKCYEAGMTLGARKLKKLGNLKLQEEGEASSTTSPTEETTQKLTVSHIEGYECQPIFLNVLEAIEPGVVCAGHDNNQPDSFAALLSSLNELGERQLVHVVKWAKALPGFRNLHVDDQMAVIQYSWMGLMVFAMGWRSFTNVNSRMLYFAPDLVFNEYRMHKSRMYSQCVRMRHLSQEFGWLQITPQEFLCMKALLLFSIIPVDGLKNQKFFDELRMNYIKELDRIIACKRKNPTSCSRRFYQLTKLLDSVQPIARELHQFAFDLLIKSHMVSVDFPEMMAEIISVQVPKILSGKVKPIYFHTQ
Assay type: cell-based
Conditions: for activity in the PSA luciferase assay, in words: C4-2-PSA-rl cells, 1 nM R1881

activity in the PSA luciferase assay, in words	Compound	further results
essentially inactive	Cc1ccccc1N1CCN(C(=O)[C@H]2C[C@@H]2c2ccccc2)CC1 (relative stereo) [compound 16]	–
deleted activity	Cc1noc(C)c1CSCC(=O)N1CCN(c2ccccc2)CC1 [5a]	–
loss of activity	Cc1cccc(N2CCN(C(=O)CSCc3c(C)noc3C)CC2)c1 [5c]	–
loss of activity	Cc1ccc(N2CCN(C(=O)CSCc3c(C)noc3C)CC2)cc1 [5d]	–
complete loss of activity	COc1ccccc1N1CCN(C(=O)CSCc2c(C)noc2C)CC1 [5h]	–
abolished activity	Cc1ccccc1N1CCN(C(=O)COCc2c(C)noc2C)CC1 [18a]	–
abolished activity	Cc1ccccc1N1CCN(C(=O)CN(C)Cc2ccccc2)CC1 [18b]	–
inactive	Cc1ccccc1N1CCN(C(=O)NCSCc2c(C)noc2C)CC1 [20a]	–
inactive	Cc1ccccc1N1CCC(OC(=O)NCSCc2c(C)noc2C)CC1 [20b]	–
–	Cc1ccc(Cl)cc1N1CCN(C(=O)[C@@H]2C[C@@H]2c2ccc(F)cc2)CC1 [(1R,2S)-27]	fold less potent than enantiomer (1S,2R)-27: ca. 10 fold
–	Cc1ccccc1N1CCN(CCSCc2c(C)noc2C)CC1 [compound 6]	fold increase in activity relative to amide 5b: 1.3 fold
abolished activity	Cc1ccccc1N1CCN(C(=O)CSc2ccccc2)CC1 [compound 9]	–
essentially inactive	Cc1ccccc1N1CCN(C(=O)C#Cc2ccccc2)CC1 [compound 10]	–
essentially inactive	Cc1ccccc1N1CCN(C(=O)/C=C/c2ccccc2)CC1 [compound 11]	–
inactive	Cc1ccccc1N1CCN(C(=O)C[S+]([O-])Cc2c(C)noc2C)CC1 (stereo not shown) [compound 12]	–

Compound	activity in the PSA luciferase assay, in words	further results
Cc1ccc(Cl)cc1N1CCN(C(=O)[C@H]2C[C@H]2c2ccc(F)cc2)CC1 [(1S,2R)-27]	substantially equipotent to the commercial AR antagonist, enzalutamide	–
